Drawing on PubChem BioAssay AID588780 (Sanford-Burnham Center for Chemical Genomics, 2011), this text covers IC50 for 84 molecules.

Active and inactive are the calls of the source.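 The calls were made as follows: active = compounds whose fitted half-maximal concentration in the cell-protection dose series is at or below a set limit; inactive = the rest.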

The subject of the experiment is H9c2 cardiomyocytes, 2-deoxyglucose stress, ATP luminescence, 2 h. The experiment can be described thus: H9c2 cell survival under 2-deoxyglucose stress – uHTS hits, dose response (AID 588780).
In the case of `COc1ccc(CC(=O)N/N=C(\C)c2ccccn2)cc1`, the IC50 (usually the concentration at which inhibition is half-maximal) was 26.7 µM.

Take `Cn1c(=O)[nH]c(=O)c2c1nc(NCCc1ccccc1)n2CC(O)COc1ccccc1` (centres undefined): the IC50 was > 79 µM (inactive).

`COc1cc(/C=C/C(=O)CC(=O)/C=C/c2ccc(O)c(OC)c2)ccc1O`: the IC50 is > 79 µM (inactive).

In the case of `Cc1sc2nc(COC(=O)Cc3ccccc3)[nH]c(=O)c2c1C`, the IC50 was > 79 µM (inactive).

`Cc1c(-c2ccccc2)oc2c(C(=O)OCC(=O)Nc3ccc(C(N)=O)cc3)cccc2c1=O`: the IC50 was 9.94 µM.

Consider `O=C(CN(C(=O)Cn1nnc(-c2cccs2)n1)c1cnc2ccccc2c1)NCC1CCCO1` (centres undefined), for which the IC50 was > 79 µM (inactive).

Take `O=c1[nH]nc(CNc2ccc(C(F)(F)F)cc2)c2ccccc12`: the IC50 was 15.1 µM.

Turning to `COc1ccccc1NS(=O)(=O)c1cc(NC(=O)CCc2nc3ccccc3c(=O)[nH]2)ccc1C`, the IC50 is 11.4 µM.

For the molecule `O=c1[nH]n(Cc2ccccc2)c(=O)c2ccccc12`, the IC50 is > 79 µM (inactive).

Regarding `N#CCSc1nc2cc(C(=O)N3CCC(C(N)=O)CC3)ccc2c2nc3ccccc3n12`, the half-maximal inhibitory concentration (IC50) is 15 µM.

In the case of `CC(OC(=O)Cc1n[nH]c(=O)c2ccccc12)C(=O)Nc1ccc(F)cc1` (centres undefined), the IC50 is > 79 µM (inactive).

Regarding `O=C(Nc1nc(-c2ccccn2)cs1)c1cc(S(=O)(=O)N2CCOCC2)ccc1F`, the IC50 was > 79 µM (inactive).

For the molecule `Cn1c2ccc(F)cc2c2nnc(NN)nc21`, the IC50 is > 79 µM (inactive).

With `Nc1c(C(=O)N/N=C/c2cccnc2)oc2nc(-c3ccccc3)cc(-c3ccco3)c12`, the IC50 is > 79 µM (inactive).

With `O=C(Cc1n[nH]c(=O)c2ccccc12)NCc1ccc(Cl)cc1`, the IC50 was > 79 µM (inactive).

Consider `CC(C)OCCCNC(=O)CCC(=O)NNc1nc2ccccc2c2nc(-c3ccccc3)nn12`, for which the IC50 is > 79 µM (inactive).

Regarding `COc1cccc(OC)c1C(=O)Nc1ccc(Br)c(C(=O)c2ccccc2)c1`, the half-maximal inhibitory concentration (IC50) is 10.7 µM.

As to `Cc1[nH]c2ccccc2c1/C=N/NC(=O)c1cc(-c2ccccc2)n[nH]1`, the IC50 was > 79 µM (inactive).

Consider `O=C(CSc1ccc2nnc(-c3ccc(F)cc3)n2n1)N1CCCc2ccccc21`, for which the IC50 was 13.4 µM.

With `CCCCn1nc(NC(=O)c2cccs2)c2cc3ccccc3nc21`, the IC50 was 18.2 µM.

In the case of `CN(C)C(=O)C1C2NC(=S)N(c3cccc(Cl)c3)C1(C)Oc1ccc(Cl)cc12` (centres undefined), the IC50 is 66.7 µM (inactive).

Turning to `CC(=O)N1CCN(C(=O)CCc2nc3ccccc3c(=O)[nH]2)CC1`, the IC50 was > 79 µM (inactive).

Take `CN(CC(=O)Nc1ccc(F)cc1)C(=O)CCc1nc2ccccc2c(=O)[nH]1`: the IC50 was > 79 µM (inactive).

Consider `COc1ccc(Cl)cc1NC(=O)CN(C)C(=O)Cn1[nH]c(=O)c2ccccc2c1=O`, for which the IC50 was > 79 µM (inactive).

For the molecule `COc1ccc2c(c1OC)C(=O)N1c3ccccc3C(=O)N(c3ccccc3)C21` (centres undefined), the IC50 was > 79 µM (inactive).

Take `NC(=O)c1cccc(Nc2nc(C(N)COCc3ccccc3)cs2)n1` (centres undefined): the IC50 was > 79 µM (inactive).

Take `O=c1[nH]c2cccc(Cl)c2c2ccccc12`: the IC50 was > 79 µM (inactive).

For `S=c1[nH]c2ccccc2c2ccccc12`, the IC50 is > 79 µM (inactive).

With `O=C(COc1ccc(F)cc1)N/N=C/c1cccc2cccnc12`, the IC50 is > 79 µM (inactive).

As for `COc1cccc(NC(=O)COc2cccc3c2CCNC3=O)c1`, the IC50 was 54.5 µM (inactive).

As for `CC(=O)Nc1ccc(-c2csc(NC(=O)Nc3ccccc3)n2)cc1`, the IC50 was 36.3 µM (inactive).

For the molecule `Oc1c(Br)cc(Br)cc1C=NCc1ccccc1`, the IC50 was > 79 µM (inactive).

With `COc1ccc(-c2ccc3[nH]c4c(c3c2)CCN2C[C@H]3[C@H](C)ON(C)[C@H]3C[C@@H]42)cc1`, the IC50 was 46.8 µM (inactive).

With `COC(=O)Cn1c(=NC(=O)c2cc(-c3cccs3)nc3ccccc23)sc2cc(S(N)(=O)=O)ccc21`, the IC50 is 6.88 µM.

On to `O=C(OCC(=O)N1CCCCCC1)c1n[nH]c(=O)c2ccccc12`, for which the IC50 is > 79 µM (inactive).

Take `CC(=O)Nc1cccc(NC(=O)c2cc(-c3cccnc3)nc3ccc(Br)cc23)c1`: the IC50 is > 79 µM (inactive).

On to `CS(=O)(=O)N(Cc1ccc(C(=O)NCCSc2ccccn2)cc1)c1ccccc1`, for which the IC50 is > 79 µM (inactive).

Consider `CC(=O)Oc1ccc2c(C)cc(=O)oc2c1`, for which the IC50 was > 79 µM (inactive).

For `CCOC(=O)c1cccc(NC(=O)CSc2nc3ccccc3c(=O)n2CCOC)c1`, the IC50 is 34.1 µM (inactive).

`Cc1nc(N2CCN(c3ccccn3)CC2)c2c(C)c(C(=O)Nc3ccc(F)cc3)sc2n1`: the IC50 is > 79 µM (inactive).

Consider `CCOc1ccc(-n2c(C)c(C(C)=O)c3cc(OC(C)=O)ccc32)cc1`, for which the IC50 was > 79 µM (inactive).

On to `CCOC(=O)COc1ccc2c3c(c(=O)oc2c1)CCCC3`, for which the IC50 is > 79 µM (inactive).

For the molecule `Cc1ccc(OCC(=O)Nc2nc(-c3ccccn3)cs2)c(C)c1`, the IC50 was 16.4 µM.

Take `CCn1ncc2c1C(=O)NC1c3ccccc3C(=O)N21` (centres undefined): the IC50 was > 79 µM (inactive).

For `COc1ccc(OC)c(N(CC(=O)Nc2cccnc2)S(=O)(=O)c2ccc(OC)c(OC)c2)c1`, the IC50 is 42.7 µM (inactive).

Regarding `CC(C)(C)OC(=O)CNC(=O)c1[nH]cnc1C(=O)NCC(=O)OCc1ccccc1`, the IC50 is > 79 µM (inactive).

For the molecule `Cc1cc(C)c2ccc(N)nc2c1O`, the IC50 is > 79 µM (inactive).

Regarding `COc1ccc(N(Cc2cc3cc(OC)ccc3[nH]c2=O)C(=O)c2cccnc2)cc1`, the IC50 was > 79 µM (inactive).

For `O=C1c2ccccc2NC(c2cn[nH]c2-c2ccccc2)N1O` (centres undefined), the IC50 was > 79 µM (inactive).

Take `N#CC1=C(N)Oc2c(O)cc3ccccc3c2C1c1ccsc1` (centres undefined): the IC50 is > 79 µM (inactive).

On to `NS(=O)(=O)c1ccc(CCNC(=O)c2ccc(C#CC3(O)CCCCC3)cc2)cc1`, for which the IC50 is > 79 µM (inactive).

As for `NC(=O)c1nsc(C(=O)N(c2ccccc2)C(C(=O)NCc2ccc(F)cc2)c2ccc(O)cc2)c1N` (centres undefined), the IC50 was > 79 µM (inactive).

`Cc1ccc(NS(=O)(=O)c2cc(-c3n[nH]c(=O)c4ccccc34)ccc2C)cc1`: the IC50 was > 79 µM (inactive).

In the case of `O=C(N/N=C/c1cn(-c2ccccc2)nc1-c1cccs1)c1ccccc1F`, the IC50 was > 79 µM (inactive).

`CCOc1ccc(NC(=O)c2cc3c(=O)n(C)c4ccccc4c3n2C)cc1`: the IC50 was 11.5 µM.

With `CC(=O)c1cccc(Nc2nc3ccccc3n3cnnc23)c1`, the IC50 was > 79 µM (inactive).

In the case of `O=C1N[C@H](Cc2c[nH]c3ccccc23)COC(=O)[C@H](Cc2ccc(F)cc2)C/C=C\C[C@H]1CC(=O)N(CCO)Cc1ccccc1`, the IC50 is 17.6 µM.

Consider `COc1ccc2[nH]c(=O)c(CN(Cc3ccco3)C(c3nnnn3Cc3ccccc3)C(C)C)cc2c1` (centres undefined), for which the IC50 was > 79 µM (inactive).

As to `Cc1cc(C)cc(OCC(=O)Nc2cccc(-c3nc4ncccc4o3)c2)c1`, the IC50 is > 79 µM (inactive).

For the molecule `O=c1[nH]nc(-c2ccc(NCCO)c([N+](=O)[O-])c2)c2ccccc12`, the IC50 is > 79 µM (inactive).

Regarding `O=C(CSc1nc2ccccc2c(=O)[nH]1)N1CCCCCC1`, the IC50 was > 79 µM (inactive).

Take `COc1cc(-c2ccc3oc(-c4ccsc4)cc(=O)c3c2)cc(OC)c1OC`: the IC50 is > 79 µM (inactive).

On to `N#Cc1ccccc1S(=O)(=O)N1CCN(c2nc(-c3cccnc3)nc3ccccc23)CC1`, for which the IC50 is > 79 µM (inactive).

On to `Clc1ccccc1-c1nc(N/N=C/c2cccnc2)c2ccccc2n1`, for which the IC50 was 8.37 µM.

With `C[C@H](NC(=O)c1nc[nH]c1C(=O)NCC(=O)OCc1ccccc1)C(=O)OCc1ccccc1`, the IC50 was > 79 µM (inactive).

Turning to `O=c1c2ccccc2oc2nc(-c3ccco3)n(Cc3ccccc3)c(=O)c12`, the IC50 is > 79 µM (inactive).

With `Cc1ccc(-c2nn3c(C)nnc3c3ccccc23)cc1S(=O)(=O)NC(C)c1ccccc1` (centres undefined), the IC50 was > 79 µM (inactive).

Consider `CCOC(=O)c1c(C)nc2sc3c(=O)n(-c4ccc(C(C)=O)cc4)cnc3c2c1-c1ccc(OC)cc1`, for which the IC50 is > 79 µM (inactive).

For the molecule `O=C(NNC(=O)c1cc2cc(Br)ccc2oc1=O)c1ccc(O)cc1O`, the IC50 is 31.7 µM (inactive).

With `CC(C)c1ccccc1NC(=O)COC(=O)c1c2c(nc3ccccc13)CCN(Cc1ccccc1)C2`, the IC50 was > 79 µM (inactive).

Consider `COc1cc2ccccc2cc1C(=O)NNC(=O)c1ccccc1O`, for which the IC50 was > 79 µM (inactive).

As to `O=C(CCc1nc2ccccc2c(=O)[nH]1)NNC(=O)c1cccc(Cl)c1`, the IC50 is > 79 µM (inactive).

With `COc1ccccc1-c1cc2nc(-c3ccccc3)cc(N3CCN(C(=O)c4ccco4)CC3)n2n1`, the IC50 is > 79 µM (inactive).

On to `COc1ccc(-c2ccc3c(c2)S(=O)(=O)c2cccc(C(=O)NC[C@@H]4CCCO4)c2C3=O)cc1OC`, for which the half-maximal inhibitory concentration (IC50) was 12.8 µM.

In the case of `COc1cc(C(=O)NCC(=O)N/N=C/c2ccc(-c3cccc([N+](=O)[O-])c3)o2)cc(OC)c1OC`, the IC50 was 12.5 µM.

For the molecule `NC(=O)c1c(NC(=O)Cn2nc(C(=O)O)c3ccccc3c2=O)sc2c1CCC2`, the IC50 was > 79 µM (inactive).

With `CCc1nnc(NC(=O)CSc2nnc(CNc3ccc(OC)cc3)n2C)s1`, the IC50 was > 79 µM (inactive).

Take `CCCc1cc2c(cc1NC(=O)c1ccc(Br)cc1)OCO2`: the half-inhibitory concentration (IC50) is 29.3 µM.

Regarding `COc1ccc(NC(=O)c2oc3ccc(S(=O)(=O)N4CCOCC4)cc3c2C)cc1`, the IC50 is > 79 µM (inactive).

For `CC(C)(C)OC(=O)NCC12C=CC(O1)C1C(=O)N(Cc3ccccc3)C(=O)C12` (centres undefined), the IC50 is > 79 µM (inactive).

As to `CCOC(=O)COc1cccc(C2NC(=O)c3ccccc3O2)c1` (centres undefined), the IC50 was > 79 µM (inactive).

Take `Cc1ccccc1C(C(=O)NCc1ccccc1)N(Cc1ccco1)C(=O)c1ccccn1` (centres undefined): the IC50 was 23.9 µM.

For the molecule `COc1ccc(-c2csc(NC(=O)CCn3cnc4ccccc4c3=O)n2)cc1OC`, the IC50 was > 79 µM (inactive).

Turning to `O=C(C[C@H]1C/C=C\CC[C@H](Cc2ccc(F)cc2)C(=O)O[C@@H](c2ccccc2)CNC1=O)N[C@H](CO)Cc1ccccc1`, the IC50 is > 79 µM (inactive).
